What all share (assay): Intact LC-MS labelling selectivity
What all share (type): binding
What all share (conditions): dilution series 100–6.25 μM, 24 hours at 4 °C

One experiment addresses T1, human E2 UbcH5A (Homo sapiens, UniProt P51668).
T1 construct: UbcH5A aa 1–147; His-tag (N, cleaved yes); made in house; host or cells: E. coli BL21
The procedure:
(§1) Fig. 3 Validation of HTC hit compounds by intact MS. Labelling heatmaps of dilution series (100–6.25 μM) of compounds 4–10 with (A) WT SspH1 and (B) C492K SspH1. Labelling heatmaps of dilution series of (C) compound 6 and (D) compound 7 with bacterial and human ubiquitin binding proteins. Recombinant proteins were incubated at either 1.0 or 0.5 μM with 50 μM fragments for 24 hours at 4 °C, before fragment labelling was analysed by intact LC-MS. Bacterial proteins are shown in bold and human proteins in italic fonts. (E)–(H) Kinetics analyses: time courses (0–12 hours) of compound labelling (100–1.56 μM) of SspH1 and SspH2 (0.5 μM) for (E) SspH1 and compound 7, and (F) SspH2 and compound 6. Measurements were performed in technical triplicates. Labelling percentages were plotted against time in GraphPad Prism v.10, and curves fitted separately for each replicate using one-phase association, with constraints Y0 = 0 and plateau = highest labelling percentage. Graphs for SspH1 and compound 6, and SspH2 and compound 7 are shown in Fig. S4A and B. Rate constants (kobs, as given by Graphpad Prism calculated K values) were plotted against fragment concentration in triplicate for (G) SspH1 and (H) SspH2. Straight lines were fitted with constraint Yintercept = 0. For SspH2 kinetics, 100 μM kobs was outside the linear range.
(§2) To mitigate the risk of selecting compounds which indiscriminately recognise ubiquitin binding proteins, we next performed preliminary selectivity studies with compounds 6 and 7 against human ubiquitin system proteins. […] In parallel, we tested the compounds against related NEL E3 ligases SspH2 and IpaH9.8. […] Our identification of dual SspH1 and SspH2 ligands is likely due to the high protein sequence similarity of SspH1 and SspH2 (60% for full length; 78% for NEL domains).
(§3) Dilution series experiments were performed as for 1st round screening. 1 μM OTUD4, OTUD5 or 0.5 μM HOIL, UbcH5A, SspH2, SspH1 C492K were incubated with 100–6.25 μM compounds for 24 hours at 4 °C, in 25 mM HEPES pH 7.5, 50 mM NaCl buffer. Intact protein LC-MS was performed as previously described.[40] The following deconvolution conditions were used for recombinant proteins studied in this work: […]

A further experiment has as its target T2, DUB OTUD5 (Homo sapiens, UniProt Q96G74).
T2 construct: OTUD5 aa 172–351; His-tag (N, cleaved yes); made in house; host or cells: E. coli BL21
T2 sequence (Q96G74 172-351): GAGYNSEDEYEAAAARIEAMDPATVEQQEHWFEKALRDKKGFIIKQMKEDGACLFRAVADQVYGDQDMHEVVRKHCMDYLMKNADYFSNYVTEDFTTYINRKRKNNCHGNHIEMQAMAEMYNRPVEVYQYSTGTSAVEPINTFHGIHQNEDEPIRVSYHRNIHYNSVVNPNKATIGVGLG
As for the experimental part:
as §1, §2, §3

The target in another experiment is T3, DUB OTUD4 (Homo sapiens, UniProt Q01804).
T3 construct: OTUD4 aa 1–156; His-tag (N, cleaved yes); made in house; host or cells: E. coli BL21
T3 sequence (Q01804 1-156): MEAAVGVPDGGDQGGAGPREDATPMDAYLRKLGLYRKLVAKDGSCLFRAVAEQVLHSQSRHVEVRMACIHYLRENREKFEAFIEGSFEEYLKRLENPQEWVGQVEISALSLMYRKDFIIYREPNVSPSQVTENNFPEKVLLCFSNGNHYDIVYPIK
The procedure:
as §1, §2, §3

Each structure is given as a SMILES string. “Also recorded” adds a separate entry of the source.

T1 sequence (P51668 whole entry, the tested form may be a part): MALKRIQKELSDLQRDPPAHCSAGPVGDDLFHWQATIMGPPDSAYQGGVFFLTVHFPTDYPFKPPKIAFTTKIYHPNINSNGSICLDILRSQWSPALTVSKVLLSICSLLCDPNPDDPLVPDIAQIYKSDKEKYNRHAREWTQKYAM

Take `Cc1cc(-c2nc3ccccc3n2C2CCN(C(=O)CCl)CC2)cc(C)c1O.Cl` [compound 6]: the “labelling of UbcH5A” value on human E2 UbcH5A was “minimal or no labelling; also recorded: not labelled”. Moreover, on DUB OTUD5, the “labelling of OTUD5” value is given as “minimal or no labelling”. For the same compound, the “labelling of OTUD4” value on DUB OTUD4 is “minimal or no labelling”.
Take `Cl.O=C(CCl)N1CCC(n2c(-c3ccc(C(F)(F)F)cc3)nc3ccccc32)CC1` [compound 7]: the “labelling of UbcH5A” value at human E2 UbcH5A is “minimal or no labelling; also recorded: not labelled”. Besides, at DUB OTUD5, the “labelling of OTUD5” value is on record as “minimal or no labelling”. In addition, on DUB OTUD4, the “labelling of OTUD4” value was “minimal or no labelling”.

The record behind these values is paper PMC12584752, “Covalent fragment screening to inhibit the E3 ligase activity of bacterial NEL enzymes SspH1 and SspH2” (RSC Chemical Biology, 2025).
